In US11834678B2, “Hematopoietic stem cells with improved properties” (Yeda Research and Development Co. Ltd., priority 2017, dated 2023):

What was measured:
[1] = system: HSPCs; assay: HSPC levels in bone marrow after 6 days of NAC injections (FACS); format: in vivo; conditions: CD74−/− mice; NAC 50 mg/kg i.p. for 6 days; compared to WT levels
Procedure: FIGS. 8A-L illustrate that CD74 regulates stem cell retention. (FIGS. 8A-C) FACS staining of HSPCs from WT and CD74^−/− mice for Ki-67. Results are represented as: (FIG. 8A) Percentage of Ki-67^+ from CD34^−LSK and percentage of Ki-67^+ from CD34^+ LSK, (FIG. 8B) percentage of CD34−LSK Ki-67− and CD34−LSK Ki-67+ from total BM cells and (FIG. 8C) percentage of CD34^+ LSK Ki-67^− and CD34^+ LSK Ki-67^+ from total BM cells, n=15. (FIGS. 8D-E) Mice were fed with 0.8 mg/ml BrdU in the drinking water for 3 days and BrdU incorporation was analyzed by FACS. Results are represented as: (FIG. 8D) % BrdU^+ in LSK; (FIG. 8E) percentage of LSK BrdU^− and percentage of LSK BrdU^+ from total BM cells, n=12-14. (FIG. 8F-G) FACS staining of HSPCs from WT and CD74^−/− mice for ROS. Results are represented as number of ROS high in million cells, n=9. (FIGS. 8H-I) percentage of HSPCs after 6 days of NAC injections mg/ml, n=5. (FIG. 8J) FACS staining of HSPCs from WT and CD74^−/− mice for Annexin V, n=10-12, and after 24 hours in hypoxia (FIG. 8K), n=4-5. (FIG. 8L) Ratio of Annexin V+CD74^−/− to WT of HSPCs in hypoxia and normoxic conditions. Bars show SEM. Unpaired t-test two tailed *<0.05 **<0.01.
Electron transfer along the mitochondrial respiration chain induces the formation of ROS (Kobayashi and Suda, 2012). […]

[2] = system: HSPC; conditions: after a single injection; cited from earlier work

Molecule | levels of HSPCs [1] | time to mobilization of HSPC [2]
CC(=O)N[C@@H](CS)C(=O)O [NAC, N-acetyl-L-cystein] | partially reduced | 
Zymosan |  | ≤ 1 h
